In ChEMBL document CHEMBL1157560, “SAR studies on new bis-aryls 5-HT7 ligands: Synthesis and molecular modeling” (Bioorg Med Chem, 2010):

molecular target: 5-hydroxytryptamine receptor 7 (Homo sapiens, UniProt P34969); assay: Displacement of [3H]5CT from human cloned 5HT7B receptor expressed in HEK293 cells; type: cell-based
Sequence (P34969 whole entry): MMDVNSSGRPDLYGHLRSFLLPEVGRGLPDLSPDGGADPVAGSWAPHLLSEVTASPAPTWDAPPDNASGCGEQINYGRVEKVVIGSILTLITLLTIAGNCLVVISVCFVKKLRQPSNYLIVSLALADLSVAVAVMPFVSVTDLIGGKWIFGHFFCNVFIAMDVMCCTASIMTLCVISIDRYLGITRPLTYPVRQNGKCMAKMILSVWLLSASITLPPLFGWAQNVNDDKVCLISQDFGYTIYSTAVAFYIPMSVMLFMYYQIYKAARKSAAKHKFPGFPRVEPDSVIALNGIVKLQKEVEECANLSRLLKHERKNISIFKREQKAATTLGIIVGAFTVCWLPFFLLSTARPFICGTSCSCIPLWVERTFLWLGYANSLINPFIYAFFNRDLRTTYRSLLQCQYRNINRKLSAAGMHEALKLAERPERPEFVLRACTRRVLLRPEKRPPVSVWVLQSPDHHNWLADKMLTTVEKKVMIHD

Which Ki does the source give for CN(C)CCSc1cccc(Br)n1 here?
The Ki was 37 nM.

Which Ki does the source give for COc1cccc(OC)c1-c1cccc2c1OC[C@H](N(C)C)C2 here?
Its Ki is 2.55 nM.

CCCN(CCC)[C@H]1COc2c(cccc2-c2ccccc2)C1 was tested. Which Ki did it give?
Its Ki is 3.38 nM.

CN(C)CCOc1ccccc1-c1ccccc1 was tested. Which Ki did it give?
The Ki was 156 nM.

How did the Ki turn out when CCCN(CCC)[C@H]1CCc2c(cccc2-c2ccccc2)C1 was run?
Its Ki is 2.91 nM.

Which Ki does the source give for Cc1cccc(C)c1-c1ccc2c(c1)C[C@H](N(C)C)CO2 here?
The Ki was 13.4 nM.

With Cc1cccc(C)c1-c1ccccc1SCCN(C)C as the compound, how does the Ki read?
Its Ki is 1430 nM.

For Cc1cccc(C)c1-c1cccc(OCCN(C)C)n1, which Ki is on record?
The Ki was 1610 nM.

Which Ki does the source give for COc1cccc(OC)c1-c1cnnc(CCN(C)C)n1 here?
The Ki was > 10000 nM.

With CCCN(CCC)[C@H]1CCc2c(cccc2-c2cccc3ccccc23)C1 as the compound, how does the Ki read?
The Ki was 0.3 nM.

How did the Ki turn out when Cc1cccc(C)c1-c1cccc(SCCN(C)C)n1 was run?
Its Ki is 128 nM.

How did the Ki turn out when Cc1cccc(C)c1-c1cnnc(CCN(C)C)n1 was run?
The Ki was > 10000 nM.

For CN(C)CCSc1cccc(-c2ccoc2)n1, which Ki is on record?
The Ki was 26 nM.

How did the Ki turn out when CN(C)CCOc1ccccc1Br was run?
Its Ki is 2660 nM.

COc1ccccc1-c1ccccc1OCCN(C)C was tested. Which Ki did it give?
The Ki was 669 nM.

Which Ki does the source give for CN(C)CCc1nncc(-c2ccccc2)n1 here?
Its Ki is > 10000 nM.

With CN(C)CCSc1ccccc1-c1ccccc1 as the compound, how does the Ki read?
The Ki was 553 nM.

How did the Ki turn out when COc1cccc(OC)c1-c1ccnc(CCN(C)C)n1 was run?
The Ki was 1480 nM.

Which Ki does the source give for CN(C)CCSc1ccccc1Br here?
The Ki was 4110 nM.

molecular target: T1, 5-hydroxytryptamine receptor 1A (Rattus norvegicus, UniProt P19327); assay: Displacement of [3H]8-OH-DPAT from 5HT1A receptor in rat hippocampus; type: tissue-based
T1 sequence (P19327 whole entry): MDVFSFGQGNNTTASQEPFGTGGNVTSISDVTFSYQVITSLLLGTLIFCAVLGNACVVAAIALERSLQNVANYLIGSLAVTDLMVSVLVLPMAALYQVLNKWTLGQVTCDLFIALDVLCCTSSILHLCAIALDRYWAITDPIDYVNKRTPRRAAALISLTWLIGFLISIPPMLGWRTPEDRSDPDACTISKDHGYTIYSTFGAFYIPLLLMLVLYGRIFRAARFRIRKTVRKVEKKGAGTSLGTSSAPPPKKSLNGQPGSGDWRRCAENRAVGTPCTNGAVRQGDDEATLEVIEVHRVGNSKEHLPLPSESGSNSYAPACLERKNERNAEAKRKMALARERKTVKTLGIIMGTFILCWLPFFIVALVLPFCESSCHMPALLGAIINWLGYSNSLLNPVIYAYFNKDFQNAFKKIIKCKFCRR

CN(C)CCSc1cccc(Br)n1 was tested. Which Ki did it give?
Its Ki is 133 nM.

For CN(C)CCSc1cccc(-c2ccccc2)n1, which Ki is on record?
The Ki was 43 nM.

With Cc1cccc(C)c1-c1cccc(OCCN(C)C)n1 as the compound, how does the Ki read?
Its Ki is 7220 nM.

CN(C)CCOc1cccc(Br)n1 was tested. Which Ki did it give?
The Ki was 902 nM.

Cc1cccc(C)c1-c1cccc(SCCN(C)C)n1 was tested. Which Ki did it give?
The Ki was 927 nM.

How did the Ki turn out when CN(C)CCSc1cccc(-c2ccccc2)c1 was run?
The Ki was 516 nM.

With Cc1cccc(C)c1-c1cccc(SCCN(C)C)c1 as the compound, how does the Ki read?
Its Ki is 2350 nM.

How did the Ki turn out when CN(C)CCSc1cccc(-c2ccoc2)n1 was run?
Its Ki is 28 nM.

For CN(C)CCSc1cccc(Br)c1, which Ki is on record?
The Ki was 676 nM.
